In patent US12491183B2, “Compositions and methods of using nintedanib for treating ocular diseases with abnormal neovascularization” (ADS Therapeutics LLC, priority 2016, dated 2025):
“Also recorded” adds a separate entry of the source.

Tests used:
[1] = test system: corneal graft rejection (C57BL/6 cornea transplanted onto BALB/c mice); experiment: Mouse corneal graft rejection model; assay type: in vivo; conditions: nintedanib 0.2% solution TID for 8 weeks vs vehicle solution
Source text: In this example, cornea of C57BL/6 mice would be transplanted onto BALB/c mice cornea as described (Sonoda et al. Invest Ophthalmol Vis Sci. 1995 February; 36(2):427-34; Invest Ophthalmol Vis Sci. 2000 March; 41(3):790-8; Yamagami et al. Invest Ophthalmol Vis Sci. 2001 May; 42(6): 1293-8). The suture would be removed on day 7 after transplant. The mice would be divided into two groups. Group 1 would be treated with the nintedanib 0.2% solution and group 2 with the vehicle solution. Treatment would start immediately after transplant, TID for 8 weeks. The corneal opacity and graft rejection will be assessed weekly for 8 weeks as described.

[2] = test system: suture-induced neovascularization in the rabbit cornea; experiment: Rabbit cornea suture model of neovascularization; assay type: in vivo
Description: Topical compositions comprising 0.2% or 0.05% nintedanib in 10% 2-hydroxypropyl beta cyclodextrin in phosphate buffer solution, pH 7.4 were prepared. Thirty female Zealand White rabbits were used to perform the study. Briefly, five sutures were placed in the upper cornea of the right eye of each animal on Day 1 to induce neovascularization. The animals were treated in both eyes with either drug, vehicle or saline as described in Table 1. [table] During the study, the animals were closely observed for various ocular indications as well as general physical conditions including body weight. Ocular images were taken on days 7, 10, 12, 14, 21, 28 for analysis of hyperemia. NIH ImageJ® software was used to analyze the ocular images. Each image was opened in ImageJ®, the scale was calibrated using the ruler in the photograph and the neovascularized area on the cornea near the suture was selected by the selection tool. The area in mm^2 was calculated by measurement tool in the software, recorded in excel and the image was captured and saved. […] The results were plotted as histograms of average with standard deviation for easy comparison.

SMILES: COC(=O)c1ccc2c(c1)NC(=O)/C2=C(\Nc1ccc(N(C)C(=O)CN2CCN(C)CC2)cc1)c1ccccc1 [nintedanib, Methyl (3Z)-3-{[(4-{methyl[(4-methylpiperazin-1-yl)acetyl]amino}phenyl)amino] (phenyl)methylidene}-2-oxo-2,3-dihydro-1H-indole-6-carboxylate]
- survival of the graft (rejection rate) [1]: significantly increased survival of the graft
- efficacy of TID dosing compared with BID dosing ([2]; rabbit cornea suture model, topical ocular, TID vs BID): higher efficacy
- efficacy of 0.2% nintedanib compared with 0.05% nintedanib ([2]; rabbit cornea suture model, topical ocular, higher dose 0.2% vs 0.05%): better efficacy
- effect on suture-induced corneal neovascularization (area of cornea neovascularization) ([2]; rabbit, topical ocular 0.2% or 0.05% solution BID or TID days 8 to 15, vs vehicle, day 12 and day 14 after suture): reduced cornea neovascularization; also recorded: marked inhibitory effect; also recorded: strongly inhibited corneal neovascularization
